Assay results as given in patent US20180155344A1, “TRICYCLIC PIPERIDINE COMPOUNDS” (ACTELION PHARMACEUTICALS LTD, priority 2015, published 2018).

The molecules below were run against T1, human TPH1 (Homo sapiens, UniProt P17752) (assay: biochemical). Settings: not given.
T1 sequence (P17752 1-444): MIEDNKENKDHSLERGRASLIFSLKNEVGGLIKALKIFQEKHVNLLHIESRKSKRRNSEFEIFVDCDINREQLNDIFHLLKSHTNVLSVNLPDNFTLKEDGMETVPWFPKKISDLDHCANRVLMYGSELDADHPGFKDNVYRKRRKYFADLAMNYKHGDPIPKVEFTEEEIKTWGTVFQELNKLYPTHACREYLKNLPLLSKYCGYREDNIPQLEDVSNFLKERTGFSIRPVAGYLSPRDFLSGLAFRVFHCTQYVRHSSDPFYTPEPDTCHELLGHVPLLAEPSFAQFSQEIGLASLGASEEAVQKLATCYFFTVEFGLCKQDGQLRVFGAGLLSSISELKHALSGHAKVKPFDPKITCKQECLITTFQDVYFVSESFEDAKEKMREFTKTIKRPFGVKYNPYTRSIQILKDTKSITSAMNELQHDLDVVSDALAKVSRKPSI
From the text: Biochemical In Vitro Assay Using Fluorescence Readout
To generate the enzyme, full length human TPH1 is cloned into the plasmid pET20b(+) (Novagen) and expressed in E. coli. The bacterial cells are ruptured by sonication on ice and the lysate is cleared by centrifugation. The resulting protein in the pellet is re-extracted and TPH1 is purified from the obtained lysate by affinity chromatography using a pterin cosubstrate analog immobilized to the resin of the column. The protein is further purified by size exclusion chromatography to remove protein aggregates. The activity of TPH1 is determined by using a fluorescence assay. The enzyme activity assay is carried out at 15° C. with atmosphere oxygen for the duration of 60 minutes in a volume of 64 μl. The reaction is carried out in a 0.1 M Tris-HCl buffer, adjusted to pH 7.6, containing 1 mM DTT, 0.2 mg/mL catalase, 100 μM (±)-6-methyl-5,6,7,8-tetrahydropterine dihydrochloride, 40 μM L-tryptophan, and 40-80 nM of TPH1. The reaction is started by bringing together L-tryptophan with all the other reaction substituents and stopped by quenching with perchloric acid (HClO4). The amount of 5-hydroxy-L-tryptophan produced during the enzymatic reaction is determined by fluorescence readout. Fluorescence, as determined at 540 nm when excited at 300 nm wavelength, increases proportionally to the 5-hydroxy-L-tryptophan formed. Compounds are prepared as 10 mM stock solution in DMSO, then diluted in 384-well plates using DMSO followed by a transfer of the dilutions into the assay plate. Fluorescence is measured for each well and the fluorescence at 540 nm wavelength is compared to the fluorescence of the vehicle in place of compound. […] The calculated IC50 values may fluctuate depending on the daily biochemical assay performance. Fluctuations of this kind are known to those skilled in the art.

Molecule	IC50
COc1cc(C)c(C2c3c(nc4cc(C(F)(F)F)ccn34)CCN2C(=O)COc2ccc(CN3CCOCC3)cc2Cl)cn1 (centres unmarked) [Example 3.39.1, 2-(2-chloro-4-(morpholinomethyl)phenoxy)-1-(1-(6-methoxy-4-methylpyridin-3-yl)-7-(trifluoromethyl)-3,4-dihydroimidazo[1,2-a:5,4-c′]dipyridin-2(1H)-yl)ethan-1-one]	46 nM
CS(=O)(=O)c1ccc(OCC(=O)N2CCc3nc4ccccn4c3C2c2ccc(Cl)cc2F)c(Cl)n1 (centres unmarked) [Example 1.4.14, 1-(1-(4-chloro-2-fluorophenyl)-3,4-dihydroimidazo[1,2-a:5,4-c′]dipyridin-2(1H)-yl)-2-((2-chloro-6-(methylsulfonyl)pyridin-3-yl)oxy)ethan-1-one]	287 nM
CCc1ncc(C2c3c(nc4cc(C(F)(F)F)ccn34)CCN2C(=O)COc2ccc(CN3CCOCC3)cc2Cl)cn1 (centres unmarked) [Example 3.54.2, 2-(2-chloro-4-(morpholinomethyl)phenoxy)-1-(1-(2-ethylpyrimidin-5-yl)-7-(trifluoromethyl)-3,4-dihydroimidazo[1,2-a:5,4-c′]dipyridin-2(1H)-yl)ethan-1-one]	415 nM
COc1ccc(C2c3c(nc4cc(C(F)(F)F)ccn34)CCN2C(=O)COc2ccc(CN3CCOCC3)cc2Cl)cn1 (centres unmarked) [Example 3.6.2, 2-(2-chloro-4-(morpholinomethyl)phenoxy)-1-(1-(6-methoxypyridin-3-yl)-7-(trifluoromethyl)-3,4-dihydroimidazo[1,2-a:5,4-c′]dipyridin-2(1H)-yl)ethan-1-one]	50 nM
O=C(COc1ccc(CN2CCOCC2)cc1Cl)N1CCc2nc3ccccn3c2C1c1cccnc1F (centres unmarked) [Example 1.2.1, 2-(2-chloro-4-(morpholinomethyl)phenoxy)-1-(1-(2-fluoropyridin-3-yl)-3,4-dihydroimidazo[1,2-a:5,4-c′]dipyridin-2(1H)-yl)ethan-1-one]	209 nM
Cc1ccc(C2c3c(nc4ccccn34)CCN2C(=O)COc2ccc(Cl)cc2Cl)cc1C (centres unmarked) [Example 1.10.1, 2-(2,4-dichlorophenoxy)-1-(1-(3,4-dimethylphenyl)-3,4-dihydroimidazo[1,2-a:5,4-c′]dipyridin-2(1H)-yl)ethan-1-one]	451 nM
O=C(COc1ccc2ccccc2c1)N1CCc2nc3cc(C(F)(F)F)ccn3c2C1c1ccc(OC(F)F)cc1 (centres unmarked) [Example 3.26.1, 1-(1-(4-(difluoromethoxy)phenyl)-7-(trifluoromethyl)-3,4-dihydroimidazo[1,2-a:5,4-c′]dipyridin-2(1H)-yl)-2-(naphthalen-2-yloxy)ethan-1-one]	120 nM
O=C(COc1ccc(CN2CCOCC2)cc1Cl)N1CCc2nc3cc(C(F)(F)F)ccn3c2C1c1ccc(F)c(F)c1 (centres unmarked) [Example 3.34.2, 2-(2-chloro-4-(morpholinomethyl)phenoxy)-1-(1-(3,4-difluorophenyl)-7-(trifluoromethyl)-3,4-dihydroimidazo[1,2-a:5,4-c′]dipyridin-2(1H)-yl)ethan-1-one]	242 nM
CCc1nc(NS(C)(=O)=O)ccc1OCC(=O)N1CCc2nc3cnccn3c2C1c1sc(C)nc1C (centres unmarked) [Example 17.3.1, N-(5-(2-(1-(2,4-dimethylthiazol-5-yl)-3,4-dihydropyrido[4′,3′:4,5]imidazo[1,2-a]pyrazin-2(1H)-yl)-2-oxoethoxy)-6-ethylpyridin-2-yl)methanesulfonamide]	461 nM
COc1cc(C2c3c(nc4cc(C(F)(F)F)ccn34)CCN2C(=O)COc2ccc3ccccc3c2)ccc1OCCN(C)C (centres unmarked) [Example 3.15.1, 1-(1-(4-(2-(dimethylamino)ethoxy)-3-methoxyphenyl)-7-(trifluoromethyl)-3,4-dihydroimidazo[1,2-a:5,4-c′]dipyridin-2(1H)-yl)-2-(naphthalen-2-yloxy)ethan-1-one]	70 nM
COc1ccc(C2c3c(nc4cc(C(F)(F)F)ccn34)CCN2C(=O)COc2cccnc2C2CC2)cc1OC (centres unmarked) [Example 3.1.35]	336 nM

Now from value to molecule:

IC50	Molecule
44 nM	O=C(COc1cccnc1Cl)N1CCc2nc3cc(C(F)(F)F)ccn3c2C1c1ccc(Cl)cc1F (centres unmarked) [Example 3.4.1, 1-(1-(4-chloro-2-fluorophenyl)-7-(trifluoromethyl)-3,4-dihydroimidazo[1,2-a:5,4-c′]dipyridin-2(1H)-yl)-2-((2-chloropyridin-3-yl)oxy)ethan-1-one]
34 nM	O=C(COc1cccnc1Cl)N1CCc2nc3ccccn3c2C1c1ccc(C2CC2)cc1F (centres unmarked) [Example 1.5.4, 2-((2-chloropyridin-3-yl)oxy)-1-(1-(4-cyclopropyl-2-fluorophenyl)-3,4-dihydroimidazo[1,2-a:5,4-c′]dipyridin-2(1H)-yl)ethan-1-one]
30 nM	O=C(COc1ccc(CN2CCOCC2)cc1Cl)N1CCc2nc3cc(C(F)(F)F)ccn3c2C1c1ccc(Cl)cn1 (centres unmarked) [Example 3.58.1, 2-(2-chloro-4-(morpholinomethyl)phenoxy)-1-(1-(5-chloropyridin-2-yl)-7-(trifluoromethyl)-3,4-dihydroimidazo[1,2-a:5,4-c′]dipyridin-2(1H)-yl)ethan-1-one]
20 nM	COc1ccc(C2c3c(nc4cc(C(F)(F)F)ccn34)CCN2C(=O)COc2cccnc2Br)cc1OC (centres unmarked) [Example 3.1.17, 2-((2-bromopyridin-3-yl)oxy)-1-(1-(3,4-dimethoxyphenyl)-7-(trifluoromethyl)-3,4-dihydroimidazo[1,2-a:5,4-c′]dipyridin-2(1H)-yl)ethan-1-one]
19 nM	O=C(COc1ccc(N2CCOCC2)cc1Cl)N1CCc2nc3cccnn3c2C1c1ccc(C2CC2)cc1F (centres unmarked) [Example 16.1.1, 2-(2-chloro-4-morpholinophenoxy)-1-(9-(4-cyclopropyl-2-fluorophenyl)-6,9-dihydropyrido[4′,3′:4,5]imidazo[1,2-b]pyridazin-8(7H)-yl)ethan-1-one]
14 nM	O=C(COc1ccc(N2CCOCC2)nc1Cl)N1CCc2nc3cccnn3c2C1c1ncc(C2CC2)cc1F (centres unmarked) [Example 16.2.1, 2-((2-chloro-6-morpholinopyridin-3-yl)oxy)-1-(9-(5-cyclopropyl-3-fluoropyridin-2-yl)-6,9-dihydropyrido[4′,3′:4,5]imidazo[1,2-b]pyridazin-8(7H)-yl)ethan-1-one]
13 nM	COc1cc(F)c(C2c3c(nc4cc(C(F)(F)F)ccn34)CCN2C(=O)COc2ccc3c(c2)CN(C)CC3)cc1OC (centres unmarked) [Example 3.18.5, 1-(1-(2-fluoro-4,5-dimethoxyphenyl)-7-(trifluoromethyl)-3,4-dihydroimidazo[1,2-a:5,4-c′]dipyridin-2(1H)-yl)-2-((2-methyl-1,2,3,4-tetrahydroisoquinolin-7-yl)oxy)ethan-1-one]
12 nM	COc1ccc(C2c3c(nc4ccccn34)CCN2C(=O)COc2ccc3ccccc3c2C)cc1OC (centres unmarked) [Example 1.1.6, 1-(1-(3,4-dimethoxyphenyl)-3,4-dihydroimidazo[1,2-a:5,4-c′]dipyridin-2(1H)-yl)-2-((1-methylnaphthalen-2-yl)oxy)ethan-1-one]
11 nM	COc1ccc(C2c3c(nc4cc(C(F)(F)F)ccn34)CCN2C(=O)COc2ccc3c(c2C)CCN(C(C)=O)C3)c(F)c1 (centres unmarked) [Example 3.3.6, 2-((2-acetyl-5-methyl-1,2,3,4-tetrahydroisoquinolin-6-yl)oxy)-1-(1-(2-fluoro-4-methoxyphenyl)-7-(trifluoromethyl)-3,4-dihydroimidazo[1,2-a:5,4-c′]dipyridin-2(1H)-yl)ethan-1-one]
8 nM	COc1ccc(C2c3c(nc4ccccn34)CCN2C(=O)COc2ccc3ccccc3c2Cl)cc1OC (centres unmarked) [Example 1.1.9, 2-((1-chloronaphthalen-2-yl)oxy)-1-(1-(3,4-dimethoxyphenyl)-3,4-dihydroimidazo[1,2-a:5,4-c′]dipyridin-2(1H)-yl)ethan-1-one]
7 nM	Cc1ccc(C2c3c(nc4cc(C(F)(F)F)ccn34)CCN2C(=O)COc2ccc(CN3CCOCC3)cc2Cl)c(F)c1 (centres unmarked) [Example 3.22.1, 2-(2-chloro-4-(morpholinomethyl)phenoxy)-1-(1-(2-fluoro-4-methylphenyl)-7-(trifluoromethyl)-3,4-dihydroimidazo[1,2-a:5,4-c′]dipyridin-2(1H)-yl)ethan-1-one]

Same assay, conditions: Table 3; inhibitory activity on tryptophan hydroxylase 1

Molecule	IC50
1-(1-(3,4-dimethoxyphenyl)-7-(trifluoromethyl)-3,4-dihydroimidazo[1,2-a:5,4-c′]dipyridin-2(1H)-yl)-2-(3-(trifluoromethyl)phenoxy)ethan-1-one [Example 3.1.10]	251 nM
